Laboratory results as given in US20140005163A1 (NOVARTIS AG, priority 2010, published 2014).

Legend:
[1] = tested on: S6 Ribosomal Protein phosphorylation Ser235/236 in TSC1 null mouse embryo fibroblast (MEF) cells; experiment: Reverse protein array assay, S6 Ribosomal Protein phosphorylation Ser235/236 in TSC1 null MEF cells; type: cell-based; conditions: 1 h, pS6 ribosomal protein Ser235/236, 60 minutes incubation, read-out: p-S6 IC50
In short: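 TSC1−/− MEFs, seeded and held ≥20 h at 37 °C/5% CO2, were exposed to 8-step serial compound dilutions (0.02% DMSO final; DMSO vehicle control) for 60 min at 37 °C. Cells were then lysed on ice for 10 min and lysates spotted onto reverse protein array chips.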

PI3K delta = molecular target: T1, PI3K delta (Homo sapiens, UniProt O00329); experiment: PI3K delta kinase assay (Kinase-Glo luminescence); type: biochemical
T1 construct: for the full-length p110-d subunit are generated and fused by overlapping PCR; p85(iSH2) fusion partner (see partner chain) (N); His tag (C); made in house; host or cells: baculovirus; Tn5 (Trichoplusia ni) or TiniPro insect cells
In short: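 Inhibition is derived from luminescent detection of unconsumed ATP. The reaction runs for one hour at ambient temperature and contains the δ isoform fusion protein, phosphatidylinositol substrate and low (1 μM) ATP. Eight compound concentrations are tested in single, and a 4-parameter logistic model is used to calculate IC50.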

[2] = tested on: PKB Ser473 phosphorylation in Rat1-myr-HA-p110 beta cells; experiment: Reverse protein array assay, PKB Ser473 phosphorylation in Rat1-myr-p110 beta cells; type: cell-based; conditions: 0.5 h, pAkt Ser473, 30 minutes incubation, read-out: p-PKB IC50
In short: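 Lysates were arrayed at four dilutions, and phospho-PKB Ser473 was quantified by relative fluorescence signal. They came from Rat1-myr-HA-p110 alpha, beta or delta cells exposed for 30 min at 37 °C to an 8-point compound series with 0.2% DMSO constant.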

T1 sequence (O00329 with tags, fused parts or gaps limits assumed): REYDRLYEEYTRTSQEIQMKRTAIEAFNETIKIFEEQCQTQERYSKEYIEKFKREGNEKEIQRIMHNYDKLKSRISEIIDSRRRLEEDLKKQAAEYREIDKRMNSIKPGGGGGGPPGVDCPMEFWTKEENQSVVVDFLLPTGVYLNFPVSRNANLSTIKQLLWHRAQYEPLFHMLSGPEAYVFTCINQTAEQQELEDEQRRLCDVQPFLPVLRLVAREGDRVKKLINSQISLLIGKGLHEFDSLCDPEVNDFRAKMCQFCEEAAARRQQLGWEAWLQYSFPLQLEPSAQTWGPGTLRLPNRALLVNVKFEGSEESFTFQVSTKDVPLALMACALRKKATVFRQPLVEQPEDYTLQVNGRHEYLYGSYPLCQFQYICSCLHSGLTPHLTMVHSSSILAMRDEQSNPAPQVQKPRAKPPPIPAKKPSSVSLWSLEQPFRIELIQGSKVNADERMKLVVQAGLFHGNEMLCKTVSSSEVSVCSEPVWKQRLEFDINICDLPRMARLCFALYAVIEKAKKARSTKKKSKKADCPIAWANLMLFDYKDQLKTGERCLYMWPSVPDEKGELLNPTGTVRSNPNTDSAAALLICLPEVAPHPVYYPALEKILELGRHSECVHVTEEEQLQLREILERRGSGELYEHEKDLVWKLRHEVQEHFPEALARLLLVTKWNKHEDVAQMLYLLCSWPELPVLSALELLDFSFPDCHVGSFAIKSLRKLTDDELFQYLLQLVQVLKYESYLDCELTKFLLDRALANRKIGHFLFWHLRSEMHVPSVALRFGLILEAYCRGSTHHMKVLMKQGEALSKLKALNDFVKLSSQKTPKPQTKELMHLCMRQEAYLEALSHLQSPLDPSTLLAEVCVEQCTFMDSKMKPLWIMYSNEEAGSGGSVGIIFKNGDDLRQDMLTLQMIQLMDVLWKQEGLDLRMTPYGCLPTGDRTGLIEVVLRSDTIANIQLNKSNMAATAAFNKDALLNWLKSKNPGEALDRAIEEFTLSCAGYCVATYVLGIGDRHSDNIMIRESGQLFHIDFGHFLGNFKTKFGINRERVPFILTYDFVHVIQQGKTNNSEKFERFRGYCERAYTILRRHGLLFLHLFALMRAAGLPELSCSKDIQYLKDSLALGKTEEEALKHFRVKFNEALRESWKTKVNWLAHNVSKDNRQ

| Compound | IC50 (PI3K delta) [nM] | IC50 [2] [nM] | IC50 [1] [nM] |
| --- | --- | --- | --- |
| Cc1nn(C)cc1-n1c(=O)n(C)c2cnc3ccc(-c4cccc(O)c4)cc3c21 [Example 32.1, 1-(1,3-Dimethyl-1H-pyrazol-4-yl)-8-(3-hydroxy-phenyl)-3-methyl-1,3-dihydro-imidazo[4,5-c]quinolin-2-one] | 47 | 110 | 11 |
| Cc1nn(C)cc1-n1c(=O)n(C)c2cnc3ccc(-c4cccc5c4OC(F)(F)O5)cc3c21 [Example 35, 8-(2,2-Difluoro-benzo[1,3]dioxol-4-yl)-1-(1,3-dimethyl-1H-pyrazol-4-yl)-3-methyl-1,3-dihydro-imidazo[4,5-c]quinolin-2-one] | 29 | 10 | 2 |
| Cc1nn(C)cc1-n1c(=O)n(C)c2cnc3ccc(-c4ccccc4)cc3c21 [Example 37.1, 1-(1,3-Dimethyl-1H-pyrazol-4-yl)-3-methyl-8-phenyl-1,3-dihydro-imidazo[4,5-c]quinolin-2-one] | 449 | 135 | 30 |
| Cc1nn(C)cc1-n1c(=O)n(C)c2cnc3ccc(-c4ccc(C(N)=O)cc4)cc3c21 [Example 41, 4-[1-(1,3-Dimethyl-1H-pyrazol-4-yl)-3-methyl-2-oxo-2,3-dihydro-1H-imidazo[4,5-c]quinolin-8-yl]-benzamide] | 82 | 37 | 23 |
| Cc1nn(C)cc1-n1c(=O)n(C)c2cnc3ccc(-c4cccc(C(N)=O)c4)cc3c21 [Example 46, 3-[1-(1,3-Dimethyl-1H-pyrazol-4-yl)-3-methyl-2-oxo-2,3-dihydro-1H-imidazo[4,5-c]quinolin-8-yl]-benzamide] | 292 | 541 | 98 |
| Cc1nn(C)cc1-n1c(=O)n(C)c2cnc3ccc(-c4ccc5c(c4)CC(=O)N5)cc3c21 [Example 49, 1-(1,3-Dimethyl-1H-pyrazol-4-yl)-3-methyl-8-(2-oxo-2,3-dihydro-1H-indol-5-yl)-1,3-dihydro-imidazo[4,5-c]quinolin-2-one] | 106 | 152 | 217 |
| CCN(C)C(=O)Cn1cc(-n2c(=O)n(C)c3cnc4ccc(-c5cncc(OC(C)C)c5)cc4c32)c(C)n1 [Example 58.5, N-Ethyl-2-{4-[8-(5-isopropoxy-pyridin-3-yl)-3-methyl-2-oxo-2,3-dihydro-imidazo[4,5-c]quinolin-1-yl]-3-methyl-pyrazol-1-yl}-N-methyl-acetamide] | 39 | 102 | 3 |
| COc1ncc(-c2ccc3ncc4c(c3c2)n(-c2cn(C)nc2C)c(=O)n4C)cc1NC(C)=O [Example 64, N-{5-[1-(1,3-Dimethyl-1H-pyrazol-4-yl)-3-methyl-2-oxo-2,3-dihydro-1H-imidazo[4,5-c]quinolin-8-yl]-2-methoxy-pyridin-3-yl}-acetamide] | 51 | 24 | 5 |
| Cc1nn(C)cc1-n1c(=O)n(C)c2cnc3ccc(-c4cnc5c(c4)nnn5C)cc3c21 [Example 72, 1-(1,3-Dimethyl-1H-pyrazol-4-yl)-3-methyl-8-(3-methyl-3H-[1,2,3]triazolo[4,5-b]pyridin-6-yl)-1,3-dihydro-imidazo[4,5-c]quinolin-2-one] | 29 | 299 | 58 |
| Cc1nn(C)cc1-n1c(=O)n(C)c2cnc3ccc(-c4cnc5c(c4)ncn5C)cc3c21 [Example 74, 1-(1,3-Dimethyl-1H-pyrazol-4-yl)-3-methyl-8-(3-methyl-3H-imidazo[4,5-b]pyridin-6-yl)-1,3-dihydro-imidazo[4,5-c]quinolin-2-one] | 43 | 56 | 23 |
| Cc1nn(C)cc1-n1c(=O)n(C)c2cnc3ccc(-c4ccc(-n5cccn5)nc4)cc3c21 [Example 79, 1-(1,3-Dimethyl-1H-pyrazol-4-yl)-3-methyl-8-(6-pyrazol-1-yl-pyridin-3-yl)-1,3-dihydro-imidazo[4,5-c]quinolin-2-one] | 318 | 7 | 5 |
| CCNc1cc(-c2ccc3ncc4c(c3c2)n(-c2c(C)nn(CC(=O)N(C)C)c2C)c(=O)n4C)cnc1C [Example 87.5, 2-{4-[8-(5-Ethylamino-6-methyl-pyridin-3-yl)-3-methyl-2-oxo-2,3-dihydro-imidazo[4,5-c]quinolin-1-yl]-3,5-dimethyl-pyrazol-1-yl}-N,N-dimethyl-acetamide] | 35 | 407 | 180 |
| Cc1nn(C)cc1-n1c(=O)n(C)c2cnc3ccc(-c4ccc(OCCO)nc4)cc3c21 [Example 107, 1-(1,3-Dimethyl-1H-pyrazol-4-yl)-8-[6-(2-hydroxy-ethoxy)-pyridin-3-yl]-3-methyl-1,3-dihydro-imidazo[4,5-c]quinolin-2-one] | 28 | 101 | 46 |
| CCOc1ccc(-c2ccc3ncc4[nH]c(=O)n(-c5cn(C)nc5C)c4c3c2)cn1 [Example 110, 1-(1,3-Dimethyl-1H-pyrazol-4-yl)-8-(6-ethoxy-pyridin-3-yl)-1,3-dihydro-imidazo[4,5-c]quinolin-2-one] | 42 | 113 | 78 |
| COc1ncc(-c2ccc3ncc4c(c3c2)n(-c2cn(C)nc2C)c(=O)n4C)cc1C(N)=O [Example 125.2, 5-[1-(1,3-Dimethyl-1H-pyrazol-4-yl)-3-methyl-2-oxo-2,3-dihydro-1H-imidazo[4,5-c]quinolin-8-yl]-2-methoxy-nicotinamide] | 40 | 187 | 5 |

Compounds with a lower IC50 (PI3K delta), results first:

| IC50 (PI3K delta) [nM] | IC50 [2] [nM] | Compound | IC50 [1] [nM] |
| --- | --- | --- | --- |
| 26 | 10 | CCNc1cc(-c2ccc3ncc4c(c3c2)n(-c2c(C)nn(CCOC)c2C)c(=O)n4C)cnc1OC [Example 90.2, 8-(5-Ethylamino-6-methoxy-pyridin-3-yl)-1-[1-(2-methoxy-ethyl)-3,5-dimethyl-1H-pyrazol-4-yl]-3-methyl-1,3-dihydro-imidazo[4,5-c]quinolin-2-one] | 35 |
| 23 | 65 | Cc1nn(C)cc1-n1c(=O)n(C)c2cnc3ccc(-c4cccc(S(C)(=O)=O)c4)cc3c21 [Example 40, 1-(1,3-Dimethyl-1H-pyrazol-4-yl)-8-(3-methanesulfonyl-phenyl)-3-methyl-1,3-dihydro-imidazo[4,5-c]quinolin-2-one] | 36 |
| 19 | 92 | COCc1cncc(-c2ccc3ncc4c(c3c2)n(-c2cn(C)nc2C)c(=O)n4C)c1 [Example 54.1, 1-(1,3-Dimethyl-1H-pyrazol-4-yl)-8-(5-methoxymethyl-pyridin-3-yl)-3-methyl-1,3-dihydro-imidazo[4,5-c]quinolin-2-one] | 5 |
| 19 | < 5 | CCn1cc(-n2c(=O)n(C)c3cnc4ccc(-c5ccc(NC)nc5)cc4c32)c(C)n1 [Example 118.4, 1-(1-Ethyl-3-methyl-1H-pyrazol-4-yl)-3-methyl-8-(6-methylamino-pyridin-3-yl)-1,3-dihydro-imidazo[4,5-c]quinolin-2-one] | 2 |
| 13 | < 5 | CNc1ccc(-c2ccc3ncc4c(c3c2)n(-c2cn(C)nc2C)c(=O)n4C)cn1 [Example 118.2, 1-(1,3-Dimethyl-1H-pyrazol-4-yl)-3-methyl-8-(6-methylamino-pyridin-3-yl)-1,3-dihydro-imidazo[4,5-c]quinolin-2-one] | 1 |
| 12 | 43 | Cc1nn(C)cc1-n1c(=O)n(C)c2cnc3ccc(-c4cccc(S(=O)(=O)N(C)C)c4)cc3c21 [Example 53.1, 3-[1-(1,3-Dimethyl-1H-pyrazol-4-yl)-3-methyl-2-oxo-2,3-dihydro-1H-imidazo[4,5-c]quinolin-8-yl]-N,N-dimethyl-benzenesulfonamide] | 43 |
| 8 | 30 | Cc1nn(C)cc1-n1c(=O)n(C)c2cnc3ccc(-c4cncc(OC(C)C)c4)cc3c21 [Example 58.1, 1-(1,3-Dimethyl-1H-pyrazol-4-yl)-8-(5-isopropoxy-pyridin-3-yl)-3-methyl-1,3-dihydro-imidazo[4,5-c]quinolin-2-one] | 3 |
| 6 | 11 | CCOc1cncc(-c2ccc3ncc4c(c3c2)n(-c2cn(C)nc2Cl)c(=O)n4C)c1 [Example 56.4, 1-(3-Chloro-1-methyl-1H-pyrazol-4-yl)-8-(5-ethoxy-pyridin-3-yl)-3-methyl-1,3-dihydro-imidazo[4,5-c]quinolin-2-one] | 1 |
| 6 | 16 | Cc1nn(C)cc1-n1c(=O)n(C)c2cnc3ccc(-c4cnc5cc[nH]c5c4)cc3c21 [Example 99, 1-(1,3-Dimethyl-1H-pyrazol-4-yl)-3-methyl-8-(1H-pyrrolo[3,2-b]pyridin-6-yl)-1,3-dihydro-imidazo[4,5-c]quinolin-2-one] | 4 |
| 4 | 8 | Cc1ncc(-c2ccc3ncc4c(c3c2)n(-c2cn(C)nc2C)c(=O)n4C)cc1OC(C)C [Example 84.1, 1-(1,3-Dimethyl-1H-pyrazol-4-yl)-8-(5-isopropoxy-6-methyl-pyridin-3-yl)-3-methyl-1,3-dihydro-imidazo[4,5-c]quinolin-2-one] | 2 |
